Source: US10653693B2, “PRMT5 inhibitors and uses thereof” (Epizyme, Inc., priority 2014, dated 2020)

Tests used:
[1] = system: p53 expression in Z138 cells; test: p53 and p21 expression analysis (Western); assay type: cell-based, Human; details: Z138 mantle cell lymphoma cells
Protocol: Z138 cells were seeded at approximately 3×10^6 cells/dish in 10 cm tissue culture dishes in a volume of 10 mL IMDM+10% horse serum media. Cells were treated with 1 μM of Formula C for 1, 2, 3, 4, or 5 days. Cell pellets were collected by centrifuging at 500×g for 5 minutes, washing once with PBS, and freezing at −80° C. until ready to be processed.
Protein lysates were prepared by adding RIPA buffer (Sigma R0278) containing protease inhibitor (about 5× the volume of the cell pellet, or roughly 250 μL) to each cell pellet and pipetting to resuspend. Samples were sonicated with 10×1 second pulses then centrifuged at maximum speed (13,300 RPM) for 6 minutes. 200 μL of supernatant was transferred to a fresh Eppendorf tube, and pellets were discarded. Protein concentration was determined using a Pierce BCA Protein Assay kit.
Protein gel samples were prepared by combining 20 μg of lysate with appropriate volumes of Life Technologies NuPage Sample Reducing Agent, LDS Sample Buffer, and RIPA buffer. Gel samples were heated for 5-10 minutes at 100° C. in a heat block. A 15-well Invitrogen 4-12% Bis-Tris NuPAGE-SDS gel was loaded with a volume of 19 μL per well, and run in MES SDS buffer at 150V for about 1 hour or until maximal separation of bands was achieved.
Gels were transferred onto nitrocellulose membranes using an Invitrogen iBlot system. […]

[2] = system: Granta-519; test: Gene expression of apoptotic response genes (real time PCR); assay type: cell-based, Human; details: day 4
Protocol: (§1) The fold change was calculated using the Comparative Ct method ([…]). N=1. A previous RNA Seq study in MCL cell lines using a tool compound with the same cellular potency as Formula B identified expression changes in a number of genes involved in the apoptotic response (unpublished results). These genes included the Bcl-2 family members PUMA and BAX, well characterized drivers of the apoptotic response. Other genes implicated in the apoptotic response were also identified and include PHLDA3, TP53I3, p21, APOBEC3H, TRIM22, and FAS.

[3] = system: Mino cells; test: as above; assay type: cell-based, Human; details: day 4
Protocol: as §1

[4] = system: Jeko-1 cells; test: as above; assay type: cell-based, Human; details: day 4
Protocol: as §1

[5] = system: Z-138 xenograft model; test: 21 day mantle cell lymphoma xenograft study: TGI and tumor methyl mark; assay type: in vivo; details: Z-138 efficacy study; all dose groups tested; day 21
Protocol: Data presented in this example were determined after analysis of 21 day samples of mantle cell lymphoma tumors. Cmin PK samples were taken prior to the last dose on day 21. Tumors were excised, weighed and processed for methyl mark. Methyl mark reduction was measured in tumor samples and is shown as percent of vehicle control (POC). […] Tumor growth inhibition was determined using tumor volume reduction at day 21 expressed as a percent of POC. In vivo inhibition curves were also generated and IC50 values determined. Plasma levels from each group are averaged from 5 animals. […] The average body weight loss (BWL) in all groups was <6%. All doses tested show >50% TGI. […] The average BWL in all groups was <4%. The average BWL in all groups was <8%, except in the 100 mg/kg does group were 4 animals exceeded BWL of 15%.

Compound | p53 expression [1] | gene expression for p21, TRIM22, and FAS [2] | increase in the gene PHLDA3 [2] [fold] | effects in any of the genes tested [3] | effects in any of the genes tested [4] | methyl mark in tumors (sDMA Western blot) [5]
O=C(NC[C@H](O)CN1CCc2ccccc2C1)c1ccnc(NC2CCC2)c1 [Formula C] | increases |  |  |  |  | 
CC(=O)N1CCC(Nc2cc(C(=O)NC[C@H](O)CN3CCc4ccccc4C3)ccn2)CC1 [Formula B] |  | only modest increases | ≤ 10 | did not show any significant effects | did not show any significant effects | completely removed
